From US10034861B2 (priority 2016, dated 2018) come the findings set out here.

pIC50: −log10 of the molar value. Like-named read-outs stand apart in the source and are kept apart here.

One test addresses PDE1B (Homo sapiens (Human), UniProt Q01064). Description: PDE1 inhibition assay (PDE1B). Conditions: 15 nM tritium labelled cAMP, 1 hr at room temperature, SPA beads; for pIC50: read-out: PDE1B, IC50. The format is biochemical. From the text:
(§1) Table 1 lists the IC50 value for inhibition of PDE1 by the compounds of the invention. […] PDE1 assays are described in the Experimental Section.

Test [1] addresses T1, PDE1C (Homo sapiens (Human), UniProt Q14123). The test is described as follows: biochemical. Conditions: read-out: PDE1C, inhibition at 10 μM.
In another test the target is PDE1A (Homo sapiens (Human), UniProt P54750). Description: biochemical. Conditions: 15 nM tritium labelled cAMP, 1 hr at room temperature, SPA beads. It counts as biochemical.
Sequence of PDE1A (P54750 whole entry): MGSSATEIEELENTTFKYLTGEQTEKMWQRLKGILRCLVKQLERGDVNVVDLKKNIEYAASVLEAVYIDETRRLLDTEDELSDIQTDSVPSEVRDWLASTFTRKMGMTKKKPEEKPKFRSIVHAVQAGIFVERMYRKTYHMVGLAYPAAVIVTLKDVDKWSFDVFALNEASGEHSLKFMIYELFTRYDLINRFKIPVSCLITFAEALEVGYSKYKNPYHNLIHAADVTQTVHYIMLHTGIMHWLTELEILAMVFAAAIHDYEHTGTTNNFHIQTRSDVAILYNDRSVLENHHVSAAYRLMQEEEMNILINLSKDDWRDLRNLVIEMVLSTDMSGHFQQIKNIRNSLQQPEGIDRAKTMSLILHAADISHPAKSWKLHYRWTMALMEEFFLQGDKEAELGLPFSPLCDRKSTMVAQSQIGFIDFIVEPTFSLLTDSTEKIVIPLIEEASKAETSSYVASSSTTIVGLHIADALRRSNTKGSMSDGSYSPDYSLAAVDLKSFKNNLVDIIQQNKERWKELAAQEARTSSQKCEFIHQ
Source text: as §1

Test [2] addresses T1, PDE1C. Description: biochemical. Conditions: 15 nM tritium labelled cAMP, 1 hr at room temperature, SPA beads. The format is biochemical.
Source text: as §1

T1 sequence (Q14123 whole entry): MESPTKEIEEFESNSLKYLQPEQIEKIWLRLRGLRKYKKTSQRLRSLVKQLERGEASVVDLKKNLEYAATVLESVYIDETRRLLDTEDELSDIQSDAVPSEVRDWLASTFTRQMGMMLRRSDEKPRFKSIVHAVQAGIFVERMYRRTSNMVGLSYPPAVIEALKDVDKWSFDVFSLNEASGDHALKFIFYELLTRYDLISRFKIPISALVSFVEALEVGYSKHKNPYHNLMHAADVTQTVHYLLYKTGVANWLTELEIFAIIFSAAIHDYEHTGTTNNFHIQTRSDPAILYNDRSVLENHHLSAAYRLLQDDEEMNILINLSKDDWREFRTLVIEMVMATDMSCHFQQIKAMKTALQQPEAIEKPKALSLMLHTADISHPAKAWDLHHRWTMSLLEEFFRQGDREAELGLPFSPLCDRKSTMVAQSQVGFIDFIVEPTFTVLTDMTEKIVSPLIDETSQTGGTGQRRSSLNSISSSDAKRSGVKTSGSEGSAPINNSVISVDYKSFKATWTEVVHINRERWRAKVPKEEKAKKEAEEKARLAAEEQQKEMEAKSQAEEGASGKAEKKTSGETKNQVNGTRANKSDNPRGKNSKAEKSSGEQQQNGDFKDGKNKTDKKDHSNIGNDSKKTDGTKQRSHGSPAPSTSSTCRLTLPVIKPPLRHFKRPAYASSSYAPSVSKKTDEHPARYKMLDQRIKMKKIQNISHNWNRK
Sequence of PDE1B (Q01064 whole entry): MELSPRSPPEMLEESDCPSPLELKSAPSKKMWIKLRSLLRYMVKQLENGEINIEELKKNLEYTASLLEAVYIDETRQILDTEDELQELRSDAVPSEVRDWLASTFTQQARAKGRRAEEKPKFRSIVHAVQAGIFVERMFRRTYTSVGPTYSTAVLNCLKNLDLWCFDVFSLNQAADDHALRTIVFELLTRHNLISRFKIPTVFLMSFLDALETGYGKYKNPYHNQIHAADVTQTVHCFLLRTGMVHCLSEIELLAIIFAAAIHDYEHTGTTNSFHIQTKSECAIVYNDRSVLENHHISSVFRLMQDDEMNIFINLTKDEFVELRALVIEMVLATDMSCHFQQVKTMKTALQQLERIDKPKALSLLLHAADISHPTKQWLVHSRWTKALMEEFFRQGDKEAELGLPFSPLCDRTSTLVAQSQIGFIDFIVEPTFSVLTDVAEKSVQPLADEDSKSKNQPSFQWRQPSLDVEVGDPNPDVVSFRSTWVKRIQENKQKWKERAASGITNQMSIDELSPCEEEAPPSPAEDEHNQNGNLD

On PDE1B (PDE1B, IC50 (nM)), `CCOc1ncccc1-c1cc(NC(C)c2cnn(C)c2)c2c(cnn2C)n1` (racemic) [Example 15, 5-(2-ethoxypyridin-3-yl)-1-methyl-N-(1-(1-methyl-1H-pyrazol-4-yl)ethyl)-1H-pyrazolo[4,3-b]pyridin-7-amine] gave an IC50 of 200 nM. In addition, on PDE1C [1], the inhibition at 10 µM was 36%. This molecule also had a pIC50 on PDE1A of 6.09.
With `COc1ncccc1CNc1cc(-c2cccnc2C(F)(F)F)nc2c(C)nn(C(C)C)c12` [Example 183, 1-isopropyl-N-((2-methoxypyridin-3-yl)methyl)-3-methyl-5-(2-(trifluoromethyl)pyridin-3-yl)-1H-pyrazolo[4,3-b]pyridin-7-amine], the negative-log IC50 (pIC50) was 7.42 on PDE1B, 6.54 against PDE1A and 6.46 at PDE1C [2].
`Cc1nn(C(C)C)c2c(NCc3cnn(C)c3)cc(-n3cncn3)nc12` [Example 185, 1-isopropyl-3-methyl-N-((1-methyl-1H-pyrazol-4-yl)methyl)-5-(1H-1,2,4-triazol-1-yl)-1H-pyrazolo[4,3-b]pyridin-7-amine]: the pIC50 at PDE1B is 7.62; against PDE1A it was 7.00; against PDE1C [2] it was 7.04.
The like results for `Cc1nn(C(C)C)c2c(NCc3ncn(C)n3)cc(-c3ccc[nH]c3=O)nc12` [Example 186, 3-[1-isopropyl-3-methyl-7-[(1-methyl-1,2,4-triazol-3-yl)methylamino]pyrazolo[4,3-b]pyridin-5-yl]-1H-pyridin-2-one] were, in that order, 7.82, 7.19 and 6.89.
The corresponding values for `Cc1nn(C(C)C)c2c(NCc3cc[nH]n3)cc(-c3ccc[nH]c3=O)nc12` [Example 187, 3-[1-isopropyl-3-methyl-7-(1H-pyrazol-3-ylmethylamino)pyrazolo[4,3-b]pyridin-5-yl]-1H-pyridin-2-one] are 7.74, 6.85 and 6.60.
For `COc1ncccc1CNc1cc(-c2cccnc2OC(F)F)nc2c(C)nn(C(C)C)c12` [Example 188, 5-[2-(difluoromethoxy)-3-pyridyl]-1-isopropyl-N-[(2-methoxy-3-pyridyl)methyl]-3-methyl-pyrazolo[4,3-b]pyridin-7-amine], the figures for the pIC50 at PDE1B, on PDE1A and against PDE1C [2] were 8.11, 7.21 and 7.22, respectively.
For the molecule `CCOc1ncccc1-c1cc(NCc2nccc(OC)n2)c2c(n1)c(C)nn2C(C)C` [Example 189, 5-(2-ethoxy-3-pyridyl)-1-isopropyl-N-[(4-methoxypyrimidin-2-yl)methyl]-3-methyl-pyrazolo[4,3-b]pyridin-7-amine], the figures for the pIC50 on PDE1B, against PDE1A and on PDE1C [2] were 9.31, 8.41 and 7.72, respectively.
The corresponding values for `CCOc1ncccc1-c1cc(NCc2cncnc2OC)c2c(n1)c(C)nn2C(C)C` [Example 190, 5-(2-ethoxy-3-pyridyl)-1-isopropyl-N-[(4-methoxypyrimidin-5-yl)methyl]-3-methyl-pyrazolo[4,3-b]pyridin-7-amine] are 8.10, 7.13 and 7.03.
Take `CCOc1ncccc1CNc1cc(-c2cccnc2OCC)nc2c(C)nn(C(C)C)c12` [Example 191, 5-(2-ethoxy-3-pyridyl)-N-[(2-ethoxy-3-pyridyl)methyl]-1-isopropyl-3-methyl-pyrazolo[4,3-b]pyridin-7-amine]: the results for the negative-log IC50 (pIC50) at PDE1B, against PDE1A and against PDE1C [2] were 8.00, 6.80 and 6.40, respectively.
With `COc1ccc(CNc2cc(-c3cccnc3N(C)C)nc3c(C)nn(C(C)C)c23)cc1` [Example 192, 5-[2-(dimethylamino)-3-pyridyl]-1-isopropyl-N-[(4-methoxyphenyl)methyl]-3-methyl-pyrazolo[4,3-b]pyridin-7-amine], the pIC50 at PDE1B was 7.15; at PDE1A, 6.20; against PDE1C [2] it was 6.31.
The corresponding values for `Cc1nocc1-c1cc(NCc2cnn(C)c2)c2c(n1)c(C)nn2C(C)C` [Example 194, 1-isopropyl-3-methyl-5-(3-methylisoxazol-4-yl)-N-[(1-methylpyrazol-4-yl)methyl]pyrazolo[4,3-b]pyridin-7-amine] are 7.64, 7.02 and 7.68.
In the case of `Cc1nn(C(C)C)c2c(NCc3cnn(C)c3)cc(-c3ncnn3C)nc12` [Example 195, 1-isopropyl-3-methyl-5-(1-methyl-1H-1,2,4-triazol-5-yl)-N-((1-methyl-1H-pyrazol-4-yl)methyl)-1H-pyrazolo[4,3-b]pyridin-7-amine], the negative logarithm of the IC50 (pIC50) on PDE1B was 6.96; on PDE1A, 6.38; against PDE1C [2] it was 6.80.
The like results for `CCOc1ncccc1-c1cc(NCc2cccnc2OC)c2c(n1)c(C)nn2C1COC1` [Example 197, 5-(2-ethoxy-3-pyridyl)-N-[(2-methoxy-3-pyridyl)methyl]-3-methyl-1-(oxetan-3-yl)pyrazolo[4,3-b]pyridin-7-amine] were, in that order, 7.89, 6.72 and 6.72.
The corresponding values for `CCN(C)c1ncccc1-c1cc(NCc2ccc(OC)cc2)c2c(n1)c(C)nn2C(C)C` [Example 198, 5-(2-(ethyl(methyl)amino)pyridin-3-yl)-1-isopropyl-N-(4-methoxybenzyl)-3-methyl-1H-pyrazolo[4,3-b]pyridin-7-amine] are 6.62, 5.96 and 6.00.
Take `CCOc1ncccc1-c1cc(NCc2cnn(C)c2)c2c(n1)c(CF)nn2C(C)C` [Example 199, 5-(2-ethoxypyridin-3-yl)-3-(fluoromethyl)-1-isopropyl-N-((1-methyl-1H-pyrazol-4-yl)methyl)-1H-pyrazolo[4,3-b]pyridin-7-amine]: the figures for the pIC50 on PDE1B, against PDE1A and against PDE1C [2] were 9.12, 8.13 and 7.59, respectively.
For the molecule `Cc1ncoc1-c1cc(NCc2cnn(C)c2)c2c(n1)c(C)nn2C(C)C` [Example 200, 1-isopropyl-3-methyl-N-((1-methyl-1H-pyrazol-4-yl)methyl)-5-(4-methyloxazol-5-yl)-1H-pyrazolo[4,3-b]pyridin-7-amine], the negative logarithm of the IC50 (pIC50) was 7.74 at PDE1B, 7.01 against PDE1A and 6.96 at PDE1C [2].
The like results for `Cc1nn(C(C)C)c2c(NCc3cnn(C)c3)cc(-c3nncn3C)nc12` [Example 203, 1-isopropyl-3-methyl-N-[(1-methylpyrazol-4-yl)methyl]-5-(4-methyl-1,2,4-triazol-3-yl)pyrazolo[4,3-b]pyridin-7-amine] were, in that order, 6.74, 6.39 and 6.38.
